SMILES strings stand for the structures.

Two compounds from patent US20220401406A1, “TOPICAL FORMULATIONS AND INSTILLATES, KITS, AND METHODS FOR TREATING INT[…], AND USES THEREOF” (VinSan Therapeutics Inc., priority 2019, published 2022) can be followed below.

One assay relates to integumentary wound. Nature of the assay: General statements on tests of topical formulations on integumentary wounds. The settings on record: in vivo.
The next assay deals with Recalcitrant wounds. Nature of the assay: Further trials of topical formulations F21 to F30, nine patients. The settings on record: use of the component in the formulations compared to no use of it. The assay is classed as in vivo, human. On the procedure:
Topical formulations were prepared in aliquots using the following proportions—in F21, F22, and F27 to F30, the specified amounts of CBD and THCa were supplied in 2 ml of total oil volume; in F23 and F24, the specified amount of THCa was supplied in 2 ml of total oil volume and the specified amount of CBD was supplied in 4 ml of total oil volume; in F25 and F26, the specified amount of CBD was supplied in 3 ml of total oil volume:
Recalcitrant wounds of nine were treated with Formulations F21 to F30. Formulations F21, F23, F25, F27 and F29, compounded in a mixture of hyaluronic acid and aloe vera gel, were applied to wound beds. Formulations F22, F24, F26, F28 and F30, compounded in liposomal base, were applied to periwound areas. […]

On to `CCCCCc1cc2c(c(O)c1C(=O)O)[C@@H]1C=C(C)CC[C@H]1C(C)(C)O2` [THCa, tetrahydrocannabinolic acid], for which the “wound healing effects compared with decarboxylated tetrahydrocannabinol (THC)” value in the assay on integumentary wound was “better wound healing effects”. Besides, in the assay on Recalcitrant wounds, the “more rapid closure of wounds (cm^2/day), average” value is 5.3 times.
Consider `C=CC(C)(O)CCC=C(C)C` (stereo not drawn) [linalool], for which the “more rapid closure of wounds (cm^2/day), average” value with Recalcitrant wounds is given as 3.8 times.
